The values that follow come from ChEMBL document CHEMBL4480368, “Synthesis and potential antineoplastic activity of dehydroabietylamine imidazole derivatives” (Medchemcomm, 2018).

Each structure is given as a SMILES string. Activity calls are given as the source filed them. The rule behind the calls is not given here.

Data set [1] concerns A549. Nature of the data set: Induction of apoptosis in human A549 cells assessed as increase in apoptotic cells after 24 hrs by Annexin V-FITC/propidium iodide staining based flow cytometry. In kind it is functional, cell-based. For orientation: A flow cytometer gives signals particle by particle.
The test system of data set [2] is A549. Nature of the data set: Induction of apoptosis in human A549 cells assessed as decrease in viable cells after 24 hrs by Annexin V-FITC/propidium iodide staining based flow cytometry. The class given is functional, cell-based.
The test system of data set [3] is HUVEC. Nature of the data set: Cytotoxicity against HUVEC measured after 36 hrs by MTT assay. Conditions: Homo sapiens. In kind it is cell-based. For orientation: Formazan colour is commonly taken as a measure of viable cells.
In data set [4] the test system is MCF7. The data set is described as follows: Induction of apoptosis in human MCF7 cells assessed as early apoptotic cells at 0.1 ug/ml after 24 hrs by Annexin V-FITC/propidium iodide staining based flow cytometry (reference value: 2.83%). In kind it is functional.
The test system of a further data set is HeLa. Nature of the data set: Antineoplastic activity against human HeLa cells measured after 36 hrs by MTT assay. The class given is functional, cell-based.
The next data set concerns HepG2. Nature of the data set: Antineoplastic activity against human HepG2 cells measured after 36 hrs by MTT assay. In kind it is functional, cell-based. Conditions: HepG2, 36 h.
The subject of data set [5] is MCF7. The data set is described as follows: Antineoplastic activity against human MCF7 cells measured after 36 hrs by MTT assay. The class given is functional, cell-based. As to conditions: MCF7, 36 h.
In data set [6] the test system is MCF7. Nature of the data set: Induction of apoptosis in human MCF7 cells assessed as early apoptotic cells at 1 ug/ml after 24 hrs by Annexin V-FITC/propidium iodide staining based flow cytometry (reference value: 2.83%). In kind it is functional.
Data set [7] has as its system A549. Nature of the data set: Antineoplastic activity against human A549 cells measured after 36 hrs by MTT assay. In kind it is functional, cell-based. Conditions: A549, 36 h.
The test system of data set [8] is MCF7. Nature of the data set: Induction of apoptosis in human MCF7 cells assessed as early apoptotic cells at 5 ug/ml after 24 hrs by Annexin V-FITC/propidium iodide staining based flow cytometry (reference value: 2.83%). The class given is functional.
Data set [9] concerns A549. The data set is described as follows: Induction of apoptosis in human A549 cells assessed as early apoptotic cells at 2 ug/ml after 24 hrs by Annexin V-FITC/propidium iodide staining based flow cytometry (reference value: 6.09%). In kind it is functional.
Data set [10] relates to A549. The data set is described as follows: Induction of apoptosis in human A549 cells assessed as early apoptotic cells at 1 ug/ml after 24 hrs by Annexin V-FITC/propidium iodide staining based flow cytometry (reference value: 6.09%). In kind it is functional.
Data set [11] deals with A549. Nature of the data set: Induction of apoptosis in human A549 cells assessed as early apoptotic cells at 5 ug/ml after 24 hrs by Annexin V-FITC/propidium iodide staining based flow cytometry (reference value: 6.09%). The class given is functional.
The test system of data set [12] is Salmon testes DNA. The data set is described as follows: Binding affinity to Salmon sperm DNA assessed as hypochromic shift at 5 x 10^-5M by absorption spectra analysis. In kind it is nucleic-acid assay. As to conditions: Salmonidae.
For data set [13], the system named is HUVEC. The data set is described as follows: Cytotoxicity against HUVEC. The class given is cell-based. Conditions: Homo sapiens.
The nature of data set [14]: Drug internalization in human HeLa cells at 100 nM incubated for 2 hrs at 4 degC by confocal fluorescence imaging analysis. The class given is ADME, cell-based. As to conditions: 0.1 µM.
Data set [15] deals with MCF7. The data set is described as follows: Induction of apoptosis in human MCF7 cells assessed as decrease in viable cells after 24 hrs by Annexin V-FITC/propidium iodide staining based flow cytometry. The class given is functional, cell-based.
Data set [16] concerns MCF7. The data set is described as follows: Induction of apoptosis in human MCF7 cells assessed as increase in apoptotic cells after 24 hrs by Annexin V-FITC/propidium iodide staining based flow cytometry. In kind it is functional, cell-based.
Data set [17] has as its system Salmon testes DNA. The data set is described as follows: Binding affinity to Salmon sperm DNA assessed as DNA intercalation at 1.5 x 10^-5M by ethidium bromide staining based fluorescence assay. The class given is nucleic-acid assay. As to conditions: Salmonidae.

For the compound `CC(C)c1ccc2c(c1)CC[C@H]1[C@](C)(CN)CCC[C@]21C.O=C(O)c1nc[nH]c1C(=O)O` [listing 1 of 2 here], the Activity result with A549 [1] and with A549 [2] was “Dose-dependent effect” each time.

`CC(C)c1ccc2c(c1)CC[C@H]1[C@](C)(CN)CCC[C@]21C.CC(C)c1ccc2c(c1)CC[C@H]1[C@](C)(CN)CCC[C@]21C.O=C(O)c1nc[nH]c1C(=O)O` [listing 1 of 2 here]: the IC50 stood at 3.98 µM in the data set with HUVEC [3]; 2.88 µM with HeLa; 2.91 µM in the data set with HepG2; 0.75 µM with MCF7 [5]; 4.37 µM in the data set on A549 [7]. Further, the Activity in the data set with MCF7 [4] is recorded as 25.4%; with MCF7 [6] it was 39.49%; in the data set with MCF7 [8], 54.21%.

In the case of `CC(C)c1ccc2c(c1)CC[C@H]1[C@](C)(CN)CCC[C@]21C.O=C(O)c1nc[nH]c1C(=O)O` [listing 2 of 2 here], the 50% inhibitory concentration (IC50) in the data set on HUVEC [3] is 1.21 µM; with HeLa it was 18.7 µM; in the data set with HepG2 it was 4.62 µM; with MCF7 [5] it was 6.47 µM; in the data set on A549 [7], 1.85 µM. In addition, the Activity in the data set with A549 [9] amounted to 30.64%; in the data set on A549 [10], 12.47%; with A549 [11] it was 76.86%.

As for `CC(C)c1ccc2c(c1)CC[C@H]1[C@](C)(CNC(=O)c3ncn(C)c3C(=O)NC[C@]3(C)CCC[C@]4(C)c5ccc(C(C)C)cc5CC[C@@H]34)CCC[C@]21C`, the IC50 worked out at 44.9 µM with HUVEC [3]; 48.5 µM in the data set on HeLa; 50.5 µM with HepG2; 9.85 µM in the data set with MCF7 [5]; 17 µM in the data set with A549 [7]. The result with Salmon testes DNA [12] was Active.

Turning to `O=c1[nH]cc(F)c(=O)[nH]1` [FLUOROURACIL], the 50% inhibitory concentration (IC50) with HUVEC [13] amounted to 11.7 µM.

Take `CC(C)c1ccc2c(c1)CC[C@H]1[C@](C)(CN)CCC[C@]21C`: the Drug uptake result in data set [14] is “Not Active”.

Turning to `CC(C)c1ccc2c(c1)CC[C@H]1[C@](C)(CNC(=O)c3cncn3C)CCC[C@]21C`, the half-maximal inhibitory concentration (IC50) with HUVEC [3] is 57.8 µM; in the data set with HeLa, 20.9 µM; with HepG2, 12 µM; in the data set on MCF7 [5], 2.17 µM; in the data set with A549 [7] it was 53.2 µM. Moreover, in the data set with Salmon testes DNA [12], the outcome was Active.

On to `CC(C)c1ccc2c(c1)CC[C@H]1[C@](C)(CN)CCC[C@]21C.CC(C)c1ccc2c(c1)CC[C@H]1[C@](C)(CN)CCC[C@]21C.O=C(O)c1nc[nH]c1C(=O)O` [listing 2 of 2 here], for which the result in the data set with Salmon testes DNA [12] and with Salmon testes DNA [17] was Active. For the same compound, the Activity entry in the data set with MCF7 [15] and in the data set with MCF7 [16] was “Dose-dependent effect” in each case.

`CC(C)c1ccc2c(c1)CC[C@H]1[C@](C)(CNC(=O)c3ncn(C)c3C(=O)O)CCC[C@]21C`: the IC50 worked out at 33 µM in the data set on HUVEC [3]; 16.8 µM in the data set with HeLa; 6.52 µM in the data set with HepG2; 12.1 µM in the data set on MCF7 [5]; 12.3 µM in the data set with A549 [7]. Besides, in the data set on Salmon testes DNA [12], the result was Active.

In the case of `COc1cccc2c1C(=O)c1c(O)c3c(c(O)c1C2=O)C[C@@](O)(C(=O)CO)C[C@@H]3O[C@H]1C[C@H](N)[C@H](O)[C@H](C)O1` [DOXORUBICIN], the IC50 with HUVEC [3] was 4.4 µM; with HeLa, 3.55 µM; in the data set with MCF7 [5], 14 µM; in the data set with A549 [7] it was 3.35 µM.

A word on the IC50: it is the midpoint of a concentration-inhibition curve. Low values mean inhibition by little substance, high ones a need for much substance.
